Like-named read-outs stand apart in the source and are kept apart here.
Legend:
[1] = Vmax, Km and CLint for disappearance of tofacitinib in hepatic microsomes
in vitro = in vitro ADME, rat
Procedure: […]. […] […].
The binding percentage (%) was calculated using the equation: Binding percentage %=CT−CF/CT×100 where CF represents the concentration of free drug measured in the ultrafiltrate and CT is the total drug concentration introduced into the ultrafiltration system before centrifugation.

[2] = for CLR estimated from the free fraction in plasma: intravenous
[3] = Distribution of tofacitinib in tissues 30 min after intravenous administration; format: in vivo; conditions: Sprague-Dawley, rat; all tissues of CON and PHL rats, 30 min after intravenous 10 mg/kg; read-out: Tissue-to-plasma (T/P) ratios
Procedure: . Tissue samples, including fat, brain, kidney, heart, liver, large intestine, mesentery, lung, small intestine, muscle, stomach, and spleen, were removed from each rat, rinsed in phosphate-buffered saline (PBS, pH 7.4), and blotted dry with paper towels to remove any remaining blood. Approximately 1 g of each tissue was added to 4 volumes of homogenizing buffer, followed by homogenization (IKA Labortechnik, Staufen, Germany) and centrifugation at 8000× g for 10 min.

in vivo = conditions: Sprague-Dawley, rat, plasma, iv, 10 mg/kg; for clearance: CL (time-averaged total body clearance); for CL renal: CLR (time-averaged renal clearance); for MRT: MRT (mean residence time); for half-life: Terminal half-life; for Vd: Vss (apparent volume of distribution at steady state); for k el: k (elimination rate constant)
[4] = Pharmacokinetics after oral administration of 20 mg/kg to CON and PHL rats; format: in vivo, Sprague–Dawley rats; conditions: for AUC(0-inf) / Cmax / CL renal / half-life / k el / bioavailability: po, 20 mg/kg; for CL renal: read-out: CLR (time-averaged renal clearance); for half-life: read-out: Terminal half-life; for k el: read-out: k (elimination rate constant) (converted); for bioavailability: read-out: F (absolute oral bioavailability)
Procedure: The rats were randomly assigned to one of two experimental groups: a control (CON) and a P-407-induced hyperlipidemia (PHL) group. P-407 was dissolved in cold sterile 0.9% NaCl-injectable solution and stored in a refrigerator for at least 6 h to ensure complete dissolution. Rats in the PHL group received a single intraperitoneal injection of 1 g/kg P-407, whereas rats in the CON group received a single intraperitoneal injection of an equal volume of 0.9% NaCl. Hyperlipidemia was defined as a total cholesterol concentration higher than 220 mg/dL or a low-density lipoprotein (LDL) cholesterol concentration higher than 160 mg/dL [29, 30].
Rats were anesthetized with ketamine (100 mg/kg) prior to surgical procedures. […] Prior to oral investigation, the rats were fasted overnight and only the carotid artery was cannulated for blood collection. The rats were allowed to recover for 3–4 h after surgical procedures prior to the performance of subsequent experiments.
. Blood samples (0.12 mL) were obtained at 0 (prior to drug administration), 1, 5, 15, 30, 45, 60, 90, 120, 180, and 240 min through the carotid artery. […]. Blood samples (0.12 mL) were collected through the carotid artery at 0 (prior to drug administration), 5, 15, 30, 45, 60, 90, 120, 180, 240, 360, and 480 min. All blood samples were centrifuged for 1 min at 8000× g and plasma (50 μL) samples were collected. After the blood samples were obtained, 0.3 mL of heparinized 0.9% NaCl solution (20 IU/mL) was immediately injected into the carotid artery to prevent blood clotting.
At 24 h, the rats were sacrificed and the abdomen of each was opened. The entire gastrointestinal tract of each rat was excised, cut into small pieces, and immersed in a beaker containing 50 mL of methanol. After evenly mixing the contents in the beaker, a 50 μL aliquot of each supernatant was withdrawn. The volumes of urine samples collected for 24 h after drug administration were measured and two 100 μL aliquots of each were collected.
The following pharmacokinetic parameters were determined by non-compartmental analysis (WinNonlin, Pharsight Co., Mountain View, CA, USA) using standard methods: terminal half-life, time-averaged total body (CL), renal (CLR), and nonrenal (CLNR) clearances, apparent volume of distribution at steady state (Vss), area under the plasma concentration–time curve from zero to infinity (AUC0–∞), and elimination rate constant (k). AUC0–∞ was calculated using the trapezoidal rule extrapolation method, whereas the maximum plasma concentration (Cmax) and time required to reach Cmax (Tmax) were determined directly from the plasma concentration–time curves. (R3-3) The absorption rate constants (ka) for oral administration were also estimated under the assumption of one-compartment model and first-order elimination.

P-gp = system: P-gp; set-up: method as in PMID 24704892; conditions: cited from earlier work
[5] = cited from earlier work
[6] = Vmax, Km and CLint for disappearance of tofacitinib in intestinal microsomes
[7] = Sprague-Dawley, rat, plasma, CON rats (n = 6)
[8] = Sprague-Dawley, rat, plasma, PHL rats (n = 7)
[9] = oral 20 mg/kg, CON rats (n = 6)
[10] = oral 20 mg/kg, PHL rats (n = 7)

C[C@@H]1CCN(C(=O)CC#N)C[C@@H]1N(C)c1ncnc2[nH]ccc12 [tofacitinib, Tofacitinib]
CLint lower in PHL than in CON rats [1]: 36.9% | Km, PHL versus CON rats [1]: did not differ significantly | recovery at 30 min, 5 µg/mL (in vitro; pH 7.4): 100 ± 2.84% | Free (unbound to plasma proteins) fraction in plasma (in vitro; rat, plasma, 30 min, 5 µg/mL): 40.8% | fraction unbound at 30 min, 5 µg/mL (in vitro; rat, plasma, Free (unbound to plasma proteins) fraction in plasma): 0.667 | fraction unbound at 30 min, 5 µg/mL (in vitro; rat, plasma, Plasma protein binding): 0.408 | AUC0–∞ higher in PHL than in CON rats ([2]; intravenous 10 mg/kg): 73.5% | CL slower in PHL than in CON rats ([2]; intravenous 10 mg/kg): 43.0% | Ae0–24 h (drug excreted unchanged in urine for 24 h) ([2]; intravenous 10 mg/kg, CON rats (n = 7)): 4.06 ± 1.89 % of dose | Ae0–24 h (drug excreted unchanged in urine for 24 h) ([2]; intravenous 10 mg/kg, PHL rats (n = 6)): 5.76 ± 2.53 % of dose | CLR estimated from the free fraction in plasma ([2]; CON rats): 4.66 mL/min/kg | CLR estimated from the free fraction in plasma ([2]; PHL rats): 6.05 mL/min/kg | Kp at 30 min [3]: < 1 | AUC(0-inf) (in vivo; AUC (AUC0–∞), CON rats (n = 7)): 4470 ng·h/mL | clearance (in vivo; CON rats (n = 7)): 37.9 ± 4.85 mL/min/kg | clearance (in vivo; PHL rats (n = 6)): 21.6 ± 1.13 mL/min/kg | CL renal (in vivo; CON rats (n = 7)): 3.11 ± 1.58 mL/min/kg | CL renal (in vivo; PHL rats (n = 6)): 2.47 ± 1.1 mL/min/kg | MRT (in vivo; CON rats (n = 7)): 22.6 min | MRT (in vivo; PHL rats (n = 6)): 22.7 min | half-life (in vivo; CON rats (n = 7)): 29.6 ± 4.55 min | half-life (in vivo; PHL rats (n = 6)): 34.5 ± 2.29 min | Vd (in vivo; CON rats (n = 7)): 0.847 ± 0.191 L/kg | Vd (in vivo; PHL rats (n = 6)): 0.49 ± 0.136 L/kg | k el (in vivo; CON rats (n = 7)): 0.000398 s⁻¹ | k el (in vivo; PHL rats (n = 6)): 0.000337 s⁻¹ | AUC(0-inf) [4, 7]: 4800 ng·h/mL | Cmax [4, 7]: 2960 ± 643 ng/mL | CL renal [4, 7]: 3.52 ± 1.8 mL/min/kg | half-life [4, 7]: 62.1 ± 16.7 min | k el [4, 7]: 0.000197 s⁻¹ | bioavailability ([4]; Sprague-Dawley, rat, plasma, CON rats): 53.7% | AUC(0-inf) [4, 8]: 7950 ng·h/mL | Cmax [4, 8]: 4750 ± 1180 ng/mL | CL renal [4, 8]: 1.28 ± 0.786 mL/min/kg | half-life [4, 8]: 84.3 ± 21.2 min | k el [4, 8]: 0.000145 s⁻¹ | bioavailability ([4]; Sprague-Dawley, rat, plasma, PHL rats): 51.4% | Tmax ([4]; Sprague-Dawley, rat, plasma, oral 20 mg/kg, PHL rats (n = 7)): 30 min | AUC0–∞ higher in PHL than in CON rats ([4]; oral 20 mg/kg): 65.6% | CLR lower in PHL than in CON rats ([4]; oral 20 mg/kg): 63.6% | Cmax higher in PHL than in CON rats ([4]; oral 20 mg/kg): 60.5% | Ae0–24 h (drug excreted unchanged in urine for 24 h) [4, 9]: 4.90 ± 1.95 % of dose | ka (absorption rate constant) [4, 9]: 0.127 ± 0.0389 min⁻¹ | Ae0–24 h (drug excreted unchanged in urine for 24 h) [4, 10]: 3.02 ± 1.87 % of dose | ka (absorption rate constant) [4, 10]: 0.156 ± 0.0885 min⁻¹ | Time after dosing at which drug was detected in plasma ([4]; oral 20 mg/kg, all CON and PHL rats): 5 min | P-gp substrate status (P-gp): substrate of P-gp | Terminal half-life [5]: approximately 3.3 h | CLint lower in PHL than in CON rats [6]: 51.3% | Km, PHL versus CON rats [6]: comparable

Reference: PMC10534486 (Pharmaceutics, 2023)
